The source of these data is patent US20030224942A1, “Alkylamino-1,3,5-triazines, processes for their preparation and their use as herbicides and plant growth regulators” (priority 2001, published 2003).

The test system of experiment [1] is Chenopodium spp., Papaver spp., Polygonum spp., Veronica spp. or Viola spp. As to the kind of experiment: Post-emergence effect on weeds (greenhouse pot test, visual scoring). It counts as in vivo, monocotyledonous and dicotyledonous weeds. The note with it: treated at three-leaf stage; visual scoring after about 3 to 4 weeks; application rate of 0.5 kg and less of active substance per hectare.

Experiment [2] relates to Cyperus spp., Echinochloa spp., Digitaria spp., Sagitaria spp. and Scirpus spp. In words: Action on harmful plants in rice (paddy rice conditions, visual scoring). Format: in vivo, typical rice weeds (gramineous and broad-leaved). The note with it: applied into the dammed water, visual scoring about three weeks after application. In outline:
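Rice and typical gramineous and broad-leaved rice weeds grown in closed pots in greenhouse under paddy conditions (2-3 cm water) to three-leaf stage (Echinochloa crus-galli 1.5-leaf), then treated with compounds. Plants kept under optimum greenhouse conditions throughout; effect scored visually.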

Structures are written as SMILES.

Take `C#Cc1ccc(C(C)Nc2nc(N)nc(C(C)(C)F)n2)cc1F` (centres unmarked) [Product P17.1620]: the “herbicidal activity post-emergence against harmful plants” value (“herbicidal activity post-emergence” for short) in experiment [1] is given as “very good herbicidal activity”. For the same compound, in experiment [2], the “herbicidal activity against harmful plants which are typical for rice crops” value (“herbicidal activity … for rice crops” for short) is on record as “very good herbicidal activity”.

On to `C#Cc1cc(C(Nc2nc(N)nc(C(C)(C)F)n2)C2CC2)ccc1F` (centres unmarked) [Product P19.309], for which the “herbicidal activity post-emergence” value in experiment [1] is reported as “very good herbicidal activity”. In addition, in experiment [2], the “herbicidal activity … for rice crops” value is reported as “very good herbicidal activity”.

Take `C#Cc1c(F)cc(C(Nc2nc(N)nc(C(C)(C)F)n2)C2CC2)cc1F` (centres unmarked) [Product P19.352]: in experiment [1], the “herbicidal activity post-emergence” value is “very good herbicidal activity”. Also, in experiment [2], the “herbicidal activity … for rice crops” value is recorded as “very good herbicidal activity”.

On to `CC#Cc1cc(C(Nc2nc(N)nc(C(C)(C)F)n2)C2CC2)ccc1F` (centres unmarked) [Product P19.384], for which the “herbicidal activity post-emergence” value in experiment [1] is “very good herbicidal activity”. Further, the “herbicidal activity … for rice crops” value in experiment [2] was “very good herbicidal activity”.

Consider `CC#Cc1c(F)cc(C(Nc2nc(N)nc(C(C)(C)F)n2)C2CC2)cc1F` (centres unmarked) [Product P19.428], for which the “herbicidal activity post-emergence” value in experiment [1] was “very good herbicidal activity”. The “herbicidal activity … for rice crops” value in experiment [2] is “very good herbicidal activity”.

`CC(C)(F)c1nc(N)nc(NC(c2cccc(C(F)=C(F)F)c2)C2CC2)n1` (centres unmarked) [Product P19.1567]: in experiment [1], the “herbicidal activity post-emergence” value was “very good herbicidal activity”. Besides, the “herbicidal activity … for rice crops” value in experiment [2] is “very good herbicidal activity”.

Take `CC(C)(F)c1nc(N)nc(NC(c2ccc(C(F)=C(F)F)cc2)C2CC2)n1` (centres unmarked) [Product P19.1568]: in experiment [1], the “herbicidal activity post-emergence” value is listed as “very good herbicidal activity”. For the same compound, the “herbicidal activity … for rice crops” value in experiment [2] was “very good herbicidal activity”.

`C#Cc1cccc(C(Nc2nc(N)nc(C(C)(C)F)n2)C2CC2)c1` (centres unmarked) [Product P19.1579]: the “herbicidal activity post-emergence” value in experiment [1] was “very good herbicidal activity”. In experiment [2], the “herbicidal activity … for rice crops” value is “very good herbicidal activity”.

`C#Cc1ccc(C(Nc2nc(N)nc(C(C)(C)F)n2)C2CC2)cc1` (centres unmarked) [Product P19.1580]: the “herbicidal activity post-emergence” value in experiment [1] was “very good herbicidal activity”. Further, the “herbicidal activity … for rice crops” value in experiment [2] was “very good herbicidal activity”.

For `CC#Cc1cccc(C(Nc2nc(N)nc(C(C)(C)F)n2)C2CC2)c1` (centres unmarked) [Product P19.1582], the “herbicidal activity post-emergence” value in experiment [1] is on record as “very good herbicidal activity”. Further, the “herbicidal activity … for rice crops” value in experiment [2] was “very good herbicidal activity”.

For `CC#Cc1ccc(C(Nc2nc(N)nc(C(C)(C)F)n2)C2CC2)cc1` (centres unmarked) [Product P19.1583], the “herbicidal activity post-emergence” value in experiment [1] is recorded as “very good herbicidal activity”. For the same compound, the “herbicidal activity … for rice crops” value in experiment [2] was “very good herbicidal activity”.

Take `CC(C)(F)c1nc(N)nc(NC(c2cccc(C3CC3)c2)C2CC2)n1` (centres unmarked) [Product P19.1603]: the “herbicidal activity post-emergence” value in experiment [1] is “very good herbicidal activity”. Further, the “herbicidal activity … for rice crops” value in experiment [2] is “very good herbicidal activity”.

`CC(C)(F)c1nc(N)nc(NC(c2ccc(C3CC3)cc2)C2CC2)n1` (centres unmarked) [Product P19.1604]: in experiment [1], the “herbicidal activity post-emergence” value is reported as “very good herbicidal activity”. For the same compound, in experiment [2], the “herbicidal activity … for rice crops” value is on record as “very good herbicidal activity”.

As to `CC(F)c1nc(N)nc(NCc2ccc(F)c(C(F)=C(F)F)c2)n1` (centres unmarked) [Product P21.5], the “herbicidal activity post-emergence” value in experiment [1] is “very good herbicidal activity”. Moreover, in experiment [2], the “herbicidal activity … for rice crops” value is “very good herbicidal activity”.

For the compound `CC(F)c1nc(N)nc(NCc2cc(F)c(C(F)=C(F)F)c(F)c2)n1` (centres unmarked) [Product P21.49], in experiment [1], the “herbicidal activity post-emergence” value is given as “very good herbicidal activity”. In addition, the “herbicidal activity … for rice crops” value in experiment [2] is “very good herbicidal activity”.

Turning to `C#Cc1cc(CNc2nc(N)nc(C(C)F)n2)ccc1F` (centres unmarked) [Product P21.309], the “herbicidal activity post-emergence” value in experiment [1] is recorded as “very good herbicidal activity”. In experiment [2], the “herbicidal activity … for rice crops” value is “very good herbicidal activity”.

Regarding `C#Cc1c(F)cc(CNc2nc(N)nc(C(C)F)n2)cc1F` (centres unmarked) [Product P21.352], in experiment [1], the “herbicidal activity post-emergence” value is given as “very good herbicidal activity”. In experiment [2], the “herbicidal activity … for rice crops” value is “very good herbicidal activity”.

Take `CC#Cc1cc(CNc2nc(N)nc(C(C)F)n2)ccc1F` (centres unmarked) [Product P21.384]: the “herbicidal activity post-emergence” value in experiment [1] is reported as “very good herbicidal activity”. Moreover, the “herbicidal activity … for rice crops” value in experiment [2] was “very good herbicidal activity”.

Regarding `CC#Cc1c(F)cc(CNc2nc(N)nc(C(C)F)n2)cc1F` (centres unmarked) [Product P21.428], the “herbicidal activity post-emergence” value in experiment [1] is on record as “very good herbicidal activity”. Besides, the “herbicidal activity … for rice crops” value in experiment [2] is recorded as “very good herbicidal activity”.

On to `CC(F)c1nc(N)nc(NCc2ccc(F)c(C3CC3)c2)n1` (centres unmarked) [Product P21.916], for which, in experiment [1], the “herbicidal activity post-emergence” value was “very good herbicidal activity”. Further, the “herbicidal activity … for rice crops” value in experiment [2] is recorded as “very good herbicidal activity”.

For `CC(F)c1nc(N)nc(NCc2cccc(C(F)=C(F)F)c2)n1` (centres unmarked) [Product P21.1567], in experiment [1], the “herbicidal activity post-emergence” value is “very good herbicidal activity”. Further, in experiment [2], the “herbicidal activity … for rice crops” value is recorded as “very good herbicidal activity”.

Regarding `CC(F)c1nc(N)nc(NCc2ccc(C(F)=C(F)F)cc2)n1` (centres unmarked) [Product P21.1568], the “herbicidal activity post-emergence” value in experiment [1] is “very good herbicidal activity”. For the same compound, in experiment [2], the “herbicidal activity … for rice crops” value is reported as “very good herbicidal activity”.

Turning to `C#Cc1cccc(CNc2nc(N)nc(C(C)F)n2)c1` (centres unmarked) [Product P21.1579], in experiment [1], the “herbicidal activity post-emergence” value was “very good herbicidal activity”. In addition, in experiment [2], the “herbicidal activity … for rice crops” value is recorded as “very good herbicidal activity”.

Consider `C#Cc1ccc(CNc2nc(N)nc(C(C)F)n2)cc1` (centres unmarked) [Product P21.1580], for which the “herbicidal activity post-emergence” value in experiment [1] is listed as “very good herbicidal activity”. Also, in experiment [2], the “herbicidal activity … for rice crops” value is “very good herbicidal activity”.

As to `CC#Cc1cccc(CNc2nc(N)nc(C(C)F)n2)c1` (centres unmarked) [Product P21.1582], in experiment [1], the “herbicidal activity post-emergence” value is given as “very good herbicidal activity”. In experiment [2], the “herbicidal activity … for rice crops” value is recorded as “very good herbicidal activity”.

Consider `CC#Cc1ccc(CNc2nc(N)nc(C(C)F)n2)cc1` (centres unmarked) [Product P21.1583], for which, in experiment [1], the “herbicidal activity post-emergence” value was “very good herbicidal activity”. In experiment [2], the “herbicidal activity … for rice crops” value is listed as “very good herbicidal activity”.

On to `CC(F)c1nc(N)nc(NCc2cccc(C3CC3)c2)n1` (centres unmarked) [Product P21.1603], for which, in experiment [1], the “herbicidal activity post-emergence” value is recorded as “very good herbicidal activity”. For the same compound, in experiment [2], the “herbicidal activity … for rice crops” value was “very good herbicidal activity”.

Take `CC(F)c1nc(N)nc(NCc2ccc(C3CC3)cc2)n1` (centres unmarked) [Product P21.1604]: in experiment [1], the “herbicidal activity post-emergence” value was “very good herbicidal activity”. In experiment [2], the “herbicidal activity … for rice crops” value is “very good herbicidal activity”.

In the case of `CC(F)c1nc(N)nc(NC(C)c2ccc(F)c(C(F)=C(F)F)c2)n1` (centres unmarked) [Product P22.5], in experiment [1], the “herbicidal activity post-emergence” value is reported as “very good herbicidal activity”. In addition, in experiment [2], the “herbicidal activity … for rice crops” value is recorded as “very good herbicidal activity”.

For the compound `C#Cc1cc(C(C)Nc2nc(N)nc(C(C)F)n2)ccc1F` (centres unmarked) [Product P22.309], the “herbicidal activity post-emergence” value in experiment [1] is given as “very good herbicidal activity”. Besides, in experiment [2], the “herbicidal activity … for rice crops” value was “very good herbicidal activity”.

As for `C#Cc1ccc(C(C)Nc2nc(N)nc(C(C)F)n2)cc1C` (centres unmarked) [Product P22.335], the “herbicidal activity post-emergence” value in experiment [1] is listed as “very good herbicidal activity”. Further, the “herbicidal activity … for rice crops” value in experiment [2] is reported as “very good herbicidal activity”.

As for `C#Cc1c(C)cc(C(C)Nc2nc(N)nc(C(C)F)n2)cc1C` (centres unmarked) [Product P22.348], in experiment [1], the “herbicidal activity post-emergence” value was “very good herbicidal activity”. Further, in experiment [2], the “herbicidal activity … for rice crops” value is reported as “very good herbicidal activity”.

Take `C#Cc1c(F)cc(C(C)Nc2nc(N)nc(C(C)F)n2)cc1F` (centres unmarked) [Product P22.352]: the “herbicidal activity post-emergence” value in experiment [1] is recorded as “very good herbicidal activity”. Besides, the “herbicidal activity … for rice crops” value in experiment [2] is given as “very good herbicidal activity”.

Turning to `C#Cc1cc(C#C)cc(C(C)Nc2nc(N)nc(C(C)F)n2)c1` (centres unmarked) [Product P22.369], the “herbicidal activity post-emergence” value in experiment [1] is listed as “very good herbicidal activity”. The “herbicidal activity … for rice crops” value in experiment [2] was “very good herbicidal activity”.

On to `CC#Cc1cc(C(C)Nc2nc(N)nc(C(C)F)n2)ccc1F` (centres unmarked) [Product P22.384], for which, in experiment [1], the “herbicidal activity post-emergence” value is reported as “very good herbicidal activity”. The “herbicidal activity … for rice crops” value in experiment [2] was “very good herbicidal activity”.

For the compound `CC#Cc1c(F)cc(C(C)Nc2nc(N)nc(C(C)F)n2)cc1F` (centres unmarked) [Product P22.428], in experiment [1], the “herbicidal activity post-emergence” value is recorded as “very good herbicidal activity”. Besides, in experiment [2], the “herbicidal activity … for rice crops” value is “very good herbicidal activity”.

Turning to `C=C=Cc1c(F)cc(C(C)Nc2nc(N)nc(C(C)F)n2)cc1F` (centres unmarked) [Product P22.656], the “herbicidal activity post-emergence” value in experiment [1] was “very good herbicidal activity”. Also, the “herbicidal activity … for rice crops” value in experiment [2] was “very good herbicidal activity”.
